# Target: T1, CRTh2 receptor (Homo sapiens, UniProt Q9Y5Y4)
# T1 construct: expressed in transfected cells; host or cells: CHO.K1 (Chinese Hamster Ovary)
# T1 sequence (Q9Y5Y4 1-395): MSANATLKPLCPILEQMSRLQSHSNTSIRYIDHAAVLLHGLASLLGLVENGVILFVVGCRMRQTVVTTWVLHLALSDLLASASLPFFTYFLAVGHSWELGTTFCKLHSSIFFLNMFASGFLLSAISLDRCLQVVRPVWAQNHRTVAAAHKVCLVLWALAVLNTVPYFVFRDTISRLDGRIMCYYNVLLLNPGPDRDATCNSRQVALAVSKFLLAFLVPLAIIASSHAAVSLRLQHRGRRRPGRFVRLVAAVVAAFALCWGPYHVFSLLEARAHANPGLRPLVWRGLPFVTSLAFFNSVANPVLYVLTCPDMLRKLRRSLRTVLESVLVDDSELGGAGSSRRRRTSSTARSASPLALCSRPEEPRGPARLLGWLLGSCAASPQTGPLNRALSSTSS
# Assay: CRTH2 cAMP functional assay in CHO.K1-CRTh2 cells
# Format: cell-based
# Conditions: not given
# Protocol: The assay plate is incubated at room temperature on a shaker for 15 minutes.
# A mix of agonist (10 nM Prostaglandin D2) and 5 μM forskolin is prepared in assay stimulation buffer and added to the assay plate (5 μL/well).
# In addition, a cAMP standard is serially diluted in assay stimulation buffer and added to separate empty wells on the assay plate (20 μL/well).
# The assay plate is incubated at room temperature on a shaker for 60 minutes.
# The resulting lysis mix is added to all wells of the assay plate (40 μL/well).
# The assay plate is sealed with Topseal-S™ and incubated in the dark at room temperature on a shaker for 45 minutes. The plate is then counted using a Packard Fusion™ instrument.
# The resulting counts per minute are converted to nM cAMP by using the prepared cAMP standard curve.
row,Compound,IC50
1,"Cc1c(CC(=O)O)c2cccnc2n1C(C)c1ccc(Cl)cc1 (stereo not drawn) [Example 84, {1-[1-(4-Chloro-phenyl)-ethyl]-2-methyl-1H-pyrrolo[2,3-b]pyridin-3-yl}-acetic acid]",84 nM
2,Cc1c(CC(=O)O)c2cccnc2n1S(=O)(=O)c1ccc([N+](=O)[O-])cc1 [Example 3],276 nM

# Target: T1, CRTh2 receptor
# Assay: Filtration binding assay: [3H]-PGD2 competition on CHO.K1-CRTh2 membranes
# Conditions: competition with 2.5 nM [3H]-PGD2, CHO.K1-CRTh2 membranes, Cheng-Prussoff; read-out: Ki values in the SPA binding assay
# Protocol: Filtration Binding Assay Protocol
# The binding of CRTh2 antagonists is determined using membranes prepared from human CRTh2-expressing Chinese Hamster Ovary cells (CHO.K1-CRTh2). To produce cell membranes CHO.K1-CRTh2 cells cultured in roller bottles are harvested using cell dissociation buffer (Invitrogen). The cells are pelleted by centrifugation (167 g, 5 min). The cell pellet is incubated in hypotonic buffer (15 mM Tris-OH, 2 mM MgCl2, 0.3 mM EDTA, 1 mM EGTA, 1× Complete™ tablet) at 4° C. for 30 min. At 4° C. cells are homogenized using a Polytron® (IKA Ultra Turrax T25) for 5 bursts of 1 second. The homogenate is centrifuged (Beckman Optima TM TL Ultracentrifuge, 48000 g, 30 min at 4° C.). The supernatant is discarded and the membrane pellet resuspended in homogenisation buffer (75 mM Tris-OH, 12.5 mM MgCl2, 0.3 mM EDTA, 1 mM EGTA, 250 mM Sucrose, 1× Complete™ tablet. Membrane preparations are aliquoted and stored at […]. The protein content is estimated using Bradford Protein Assay Dye (Bio Rad).
# The binding of [^3H]-PGD2 (157 Ci/mmol) to CHO.K1-CRTh2 membranes is determined in the absence (total binding) and presence (non-specific binding) of unlabelled PGD2 (1 μM). Subtraction of the cpm (counts per minute) of [^3H]-PGD2 binding in presence of excess unlabelled PGD2 from that observed in the absence of excess unlabelled PGD2 is defined as specific binding. Active CRTh2 antagonists are able to compete with [^3H]-PGD2 for binding to the CRTh2 receptor and are identified in a decrease in the number of cpm bound.
# The assay is performed in Greiner U-bottomed 96 well-plates, in a final volume of 100 μl per well. CHO.K1-CRTh2 membranes were diluted in assay buffer (10 mM HEPES-KOH (pH 7.4), 1 mM EDTA and 10 mM MnCl2) and 10 μg are added to each well. [^3H]-PGD2 is diluted in assay buffer and added to each well at a final concentration of 2.5 nM. To determine non-specific binding, [^3H]-PGD2 binding to the CRTh2 receptor is competed with using unlabelled PGD2 at a final well concentration of 1 μM. The experiment is done in triplicate, with reagents added to the wells as follows:
# 25 μL assay buffer for total binding or
# 25 μL PGD2 to determine non-specific binding
# 25 μL test compound in DMSO/assay buffer
# The plates are incubated at room temperature on a shaker for 1 hour, and then harvested (Tomtec Harvester 9600) onto GF/C filter plates using wash buffer (10 mM HEPES-KOH, pH 7.4). The plate is dried for 2 hours, prior to addition of Micro-Scint 20™ (50 μL) and sealing with TopSeal-S™. Plates are then counted using a Packard Top Count instrument, Plates are then read on the Packard Topcount with the 3H Scintillation program (1 min per well).
# Ki (dissocation constant for the inhibition) values for the CRTh2 antagonists are reported. Ki values are determined using Sigma Plot™ software, using the Cheng-Prussoff equation.
# Where S is the Concentration of Radioligand and Kd is the Dissociation Constant.
row,Compound,Ki
1,"Cc1c(CC(=O)O)c2ccc(Cl)nc2n1Cc1ccc(S(C)(=O)=O)cc1C(F)(F)F [Example 100, [6-Chloro-1-(4-methanesulfonyl-2-trifluoromethyl-benzyl)-2-methyl-1H-pyrrolo[2,3-b]pyridin-3-yl]-acetic acid]",5 nM
2,"Cc1c(CC(=O)O)c2cccnc2n1C(C)c1ccc(Cl)cc1 (stereo not drawn) [Example 84, {1-[1-(4-Chloro-phenyl)-ethyl]-2-methyl-1H-pyrrolo[2,3-b]pyridin-3-yl}-acetic acid]",100 nM
3,"Cc1c(CC(=O)O)c2cccnc2n1Cc1ccc(S(C)(=O)=O)c(C(F)(F)F)c1 [Example 92, [1-(4-Methanesulfonyl-3-trifluoromethyl-benzyl)-2-methyl-1H-pyrrolo[2,3-b]pyridin-3-yl]-acetic acid]",22 nM
4,"CCS(=O)(=O)c1ccc(Cn2c(C)c(CC(=O)O)c3cccnc32)c(C(F)(F)F)c1 [Example 93, [1-(4-Ethanesulfonyl-2-trifluoromethyl-benzyl)-2-methyl-1H-pyrrolo[2,3-b]pyridin-3-yl]-acetic acid]",8 nM
5,"CCOc1cc(S(=O)(=O)n2c(C)c(CC(=O)O)c3cccnc32)ccc1C#N [Example 127, [1-(4-Cyano-3-ethoxy-benzenesulfonyl)-2-methyl-1H-pyrrolo[2,3-b]pyridin-3-yl]-acetic acid]",43 nM
6,"Cc1c(CC(=O)O)c2cccnc2n1Cc1ccc(S(C)(=O)=O)c(Cl)c1 [Example 125, [1-(3-Chloro-4-methanesulfonyl-benzyl)-2-methyl-1H-pyrrolo[2,3-b]pyridin-3-yl]-acetic acid]",27 nM
7,"Cc1c(CC(=O)O)c2cccnc2n1Cc1ccc([N+](=O)[O-])cc1 [Example 122, [2-Methyl-1-(4-nitro-benzyl)-1H-pyrrolo[2,3-b]pyridin-3-yl]-acetic acid]",147 nM
8,"Cc1c(CC(=O)O)c2cccnc2n1S(=O)(=O)c1ccc(Cl)c(C#N)c1 [Example 103, [1-(4-Chloro-3-cyano-benzenesulfonyl)-2-methyl-1H-pyrrolo[2,3-b]pyridin-3-yl]-acetic acid]",35 nM
9,"Cc1c(CC(=O)O)c2cccnc2n1Cc1ccc(C(F)(F)F)cc1C(F)(F)F [Example 119, [1-(2,4-Bis-trifluoromethyl-benzyl)-2-methyl-1H-pyrrolo[2,3-b]pyridin-3-yl]-acetic acid]",29 nM
10,"COc1cc(S(=O)(=O)n2c(C)c(CC(=O)O)c3cccnc32)ccc1C#N [Example 129, [1-(4-Cyano-3-methoxy-benzenesulfonyl)-2-methyl-1H-pyrrolo[2,3-b]pyridin-3-yl]-acetic acid]",43 nM
11,"CCS(=O)(=O)c1ccc(Cn2c(C)c(CC(=O)O)c3cccnc32)c(Cl)c1 [Example 94, [1-(2-Chloro-4-ethanesulfonyl-benzyl)-2-methyl-1H-pyrrolo[2,3-b]pyridin-3-yl]-acetic acid]",7 nM
12,"CCCOc1cc(S(=O)(=O)n2c(C)c(CC(=O)O)c3cccnc32)ccc1C#N [Example 130, [1-(4-Cyano-3-propoxy-benzenesulfonyl)-2-methyl-1H-pyrrolo[2,3-b]pyridin-3-yl]-acetic acid]",50 nM

# Further lines, results first:
row,Ki,Compound
1,11 nM,"Cc1c(CC(=O)O)c2cccnc2n1C(C)c1ccc(S(C)(=O)=O)cc1 (single isomer, unassigned) [Example 97, {1-[1-(4-Methanesulfonyl-phenyl)-ethyl]-2-methyl-1H-pyrrolo[2,3-b]pyridin-3-yl}-acetic acid]"
2,31 nM,"Cc1cc(S(C)(=O)=O)ccc1Cn1c(C)c(CC(=O)O)c2cccnc21 [Example 112, [1-(4-Methanesulfonyl-2-methyl-benzyl)-2-methyl-1H-pyrrolo[2,3-b]pyridin-3-yl]-acetic acid]"
3,12 nM,"Cc1c(CC(=O)O)c2ccc(Cl)nc2n1Cc1ccc(S(C)(=O)=O)cc1 [Example 99, [6-Chloro-1-(4-methanesulfonyl-benzyl)-2-methyl-1H-pyrrolo[2,3-b]pyridin-3-yl]-acetic acid]"
4,25 nM,"Cc1c(CC(=O)O)c2cccnc2n1C(C)c1ccc(S(C)(=O)=O)cc1 (stereo not drawn) [Example 117, {1-[1-(4-Methanesulfonyl-phenyl)-ethyl]-2-methyl-1H-pyrrolo[2,3-b]pyridin-3-yl}-acetic acid]"
5,45 nM,"Cc1c(CC(=O)O)c2cccnc2n1C(C)c1ccc(C(F)(F)F)cc1 (stereo not drawn) [Example 115, {2-Methyl-1-[1-(4-trifluoromethyl-phenyl)-ethyl]-1H-pyrrolo[2,3-b]pyridin-3-yl}-acetic acid]"
6,3 nM,"Cc1c(CC(=O)O)c2cccnc2n1Cc1ccc(S(C)(=O)=O)cc1Cl [Example 90, [1-(2-Chloro-4-methanesulfonyl-benzyl)-2-methyl-1H-pyrrolo[2,3-b]pyridin-3-yl]-acetic acid]"
7,29 nM,Cc1c(CC(=O)O)c2cccnc2n1Cc1ccc(S(C)(=O)=O)cc1 [Example 96]
8,56 nM,"COc1cc(S(=O)(=O)n2c(C)c(CC(=O)O)c3cccnc32)ccc1F [Example 102, [1-(4-Fluoro-3-methoxy-benzenesulfonyl)-2-methyl-1H-pyrrolo[2,3-b]pyridin-3-yl]-acetic acid]"
9,64 nM,"COc1cc(S(=O)(=O)n2c(C)c(CC(=O)O)c3cccnc32)ccc1Cl [Example 148, [1-(4-Chloro-3-methoxy-benzenesulfonyl)-2-methyl-1H-pyrrolo[2,3-b]pyridin-3-yl]-acetic acid]"
10,98 nM,"Cc1c(CC(=O)O)c2cccnc2n1Cc1ccc(S(=O)(=O)C(C)C)cc1 [Example 105, {2-Methyl-1-[4-(propane-2-sulfonyl)-benzyl]-1H-pyrrolo[2,3-b]pyridin-3-yl}-acetic acid]"
